Results as given in patent US11959079B2, “Methods for treating apolipoprotein E4-associated disorders” (priority 2009, dated 2024).
Entries after “also recorded” stand apart in the source; their conditions may differ.

Key:
Assay type in all cases: in vivo
[1] = tested on: female apoE4-KI mice; test: Quantification of GAD67-positive hilar GABAergic interneurons, apoE4-KI mice; settings: 16-month-old female apoE4-KI mice; 20 mg/kg i.p.
Experimental: (§1) Human apoE3-KI and apoE4-KI mice (Sullivan et al., 2004) were from Taconic. Tau−/− mice (Dawson et al., 2001) were backcrossed onto the mE−/− background, and mE−/−Tau−/− mice were crossed with apoE4(Δ272-299)mE−/− Tau+/+ mice. Studies were conducted on female mice at 1, 3, 6, 12, 16, or 21 months of age. All mice were on a C57BL/6 genetic background. Some apoE4-KI and apoE4(Δ272-299)mE−/−Tau+/+ mice received daily intraperitoneal injections of pentobarbital (20 mg/kg) or saline in their home cages for 21 days before the first day of Morris Water Maze (MWM) training and 1 h after daily training. Some apoE4(Δ272-299)mE−/−Tau−/− mice were given daily injections of picrotoxin (1 mg/kg) or saline intraperitoneally in their home cages for 3 days before MWM training and 30 min before daily training. […]
(§2) Sliding microtome sections (30 μm) were immunostained with the following primary antibodies: polyclonal goat anti-human apoE (1:8000 for fluorescence; Calbiochem), rabbit anti-neuropeptide Y (1:8000 for […] (DAB); ImmunoStar), rat anti-somatostatin (1:100 for DAB; Chemicon), mouse anti-GAD67 (1:1000 for DAB; Chemicon), mouse anti-MAP2 (1:500 for fluorescence; Sigma), mouse anti-synaptophysin (1:500 for fluorescence; DakoCytomation), and phosphorylation-dependent monoclonal antibody AT8 (p-Ser202; 1:100 for DAB; Endogen). […]

[2] = tested on: female apoE4-KI mice; test: Morris water maze, spatial learning and memory, apoE4-KI mice
Experimental: (§3) Human apoE3-KI and apoE4-KI mice (Sullivan et al., 2004) were from Taconic. Tau−/− mice (Dawson et al., 2001) were backcrossed onto the mE−/− background, and mE−/−Tau−/− mice were crossed with apoE4(Δ272-299)mE−/− Tau+/+ mice. Studies were conducted on female mice at 1, 3, 6, 12, 16, or 21 months of age. All mice were on a C57BL/6 genetic background. Some apoE4-KI and apoE4(Δ272-299)mE−/−Tau+/+ mice received daily intraperitoneal injections of pentobarbital (20 mg/kg) or saline in their home cages for 21 days before the first day of Morris Water Maze (MWM) training and 1 h after daily training. Some apoE4(Δ272-299)mE−/−Tau−/− mice were given daily injections of picrotoxin (1 mg/kg) or saline intraperitoneally in their home cages for 3 days before MWM training and 30 min before daily training. Brain tissues were collected after a 1-min transcardial perfusion with 0.9% NaCl. One hemibrain from each mouse was fixed in 4% paraformaldehyde, sectioned (30 μm) with a microtome, and immunostained as described below. All experiments were performed in accordance with NIH and institutional guidelines.
(§4) The water maze pool (diameter, 122 cm) contained opaque water (22-23° C.) with a platform 10 cm in diameter. The platform was submerged 1.5 cm during hidden platform sessions (Harris et al., 2003; Raber et al., 1998; Roberson et al., 2007) and marked with black-and-white-striped mast (15 cm high) during cued training sessions. Mice were trained to locate the hidden platform (hidden days 1-5) and the cued platform (visible days 1-3) in two daily sessions (3.5 h apart), each consisting of two 60-s trials (hidden and cued training) with a 15-min intertrial interval. The platform location remained constant in the hidden platform sessions but was changed for each cued platform session. Entry points were changed semirandomly between trials. Twenty-four, 72, and 96 hours after the last hidden platform training, a 60-s probe trial (platform removed) was performed. Entry points for the probe trial were in the west quadrant, and the target quadrant was in the southeast quadrant. Performance was monitored with an EthoVision video-tracking system (Noldus Information Technology).

[3] = tested on: apoE4(Δ272-299)mE−/−Tau+/+ mice; test: Morris water maze, apoE4(Δ272-299)mE−/−Tau+/+ mice; settings: 12-month-old female mice, 20 mg/kg i.p., 21 days before and every day during MWM, vs saline
Experimental: as §3
The water maze pool (diameter, 122 cm) contained opaque water (22-23° C.) with a platform 10 cm in diameter. […] Performance was monitored with an EthoVision video-tracking system (Noldus Information Technology).

[4] = tested on: apoE4(Δ272-299)mE−/−Tau−/− mice; test: Morris water maze, apoE4(Δ272-299)mE−/−Tau−/− mice
Experimental: as §3
as §4, with “Entry points for the probe trial were in the west quadrant, and the target quadrant was in the southeast quadrant.” left out

[5] = tested on: apoE4(Δ272-299)mE−/−Tau−/− mice; test: Quantification of GAD67-positive hilar GABAergic interneurons, apoE4(Δ272-299)mE−/−Tau−/− mice; settings: 12-month-old female mice, 1 mg/kg i.p., 3 days before and every day during MWM
Experimental: as §1, §2

[6] = tested on: mE−/−Tau+/+ mice; test: Morris water maze, mE−/−Tau+/+ mice; settings: 12-month-old female mE−/−Tau+/+ mice, 1 mg/kg i.p., 3 days before and every day during MWM
Experimental: as §4

[7] = tested on: wildtype mice; test: Morris water maze, wildtype mice; settings: 12-month-old female wildtype mice, 1 mg/kg i.p., 3 days before and every day during MWM
Experimental: as §4

Compound | number of hilar GABAergic interneurons [1] | memory deficits in probe trial (target quadrant and target cross tests) ([2]; 16-month-old apoE4-KI mice, probe trial 96 h after last hidden session, 20 mg/kg i.p.) | learning and memory deficits ([2]; 16-month-old female apoE4-KI mice, 20 mg/kg i.p. daily, 21 days before and during MWM) | learning curve (escape latency, hidden platform days) ([2]; 16-month-old female apoE4-KI mice, 20 mg/kg i.p., 21 days before and daily during MWM, vs saline) | learning deficit / learning curve (hidden platform) ([2]; 21-month-old female apoE4-KI mice, 20 mg/kg, 21 days before and daily during MWM, vs saline, 20 mg/kg) | learning deficit (hidden platform sessions) [3] | learning curve (hidden platform) ([4]; 1 mg/kg i.p., 3 days before and daily during MWM, vs saline-treated controls) | target crossing test in probe trial ([4]; probe trial 24 h after last hidden session, 1 mg/kg i.p.) | rescue (prevention) of learning and memory deficits by tau removal ([4]; subthreshold dose 1 mg/kg i.p., 3 days before and daily during MWM) | number of hilar GABAergic interneurons (GAD67-positive) [5] | learning and memory performance [6] | learning and memory performance ([6]; listed as Picrotoxin) | learning and memory performance [7] | learning and memory performance ([7]; listed as Picrotoxin)
CCCC(C)C1(CC)C(=O)NC(=O)NC1=O (centres unmarked) [pentobarbital] | did not alter | rescued memory deficits | rescued the learning and memory deficits | differed from that of saline-treated apoE4-KI mice (p<0.05, repeated-measures ANOVA) but resembled that of untreated apoE3-KI mice | rescued; also recorded: differed from that of saline-treated apoE4-KI mice (p<0.05, repeated-measures ANOVA) but resembled that of saline-treated apoE3-KI mice | rescued the learning and memory deficits; also recorded: rescued the learning deficit; also recorded: learned better than saline-treated apoE4(Δ272-299)mE−/−Tau+/+ mice (p<0.01) |  |  |  |  |  |  |  | 
picrotoxin |  |  |  |  |  |  | resembled that of saline-treated apoE4(Δ272-299)mE−/−Tau+/+ mice | performed significantly worse | abolished | unaltered; also recorded: does not alter | does not alter the learning and memory performance | did not alter | does not alter the learning and memory performance | did not alter
